IC50 data for 54 compounds are collected here from patent publication US11608341B2, “Substituted tetrahydropyrazolo[3,4-d]pyrimidines and tetrahydropyrazolo[4,3-d]pyrimidines as C5A receptor modulators” (Idorsia Pharmaceuticals Ltd., priority 2018, dated 2023).

Molecules are shown by their SMILES.

In this test the target is T1, C5AR1 (Homo sapiens, UniProt P21730).
T1 construct: host or cells: CHO-K1
T1 sequence (P21730 1-350): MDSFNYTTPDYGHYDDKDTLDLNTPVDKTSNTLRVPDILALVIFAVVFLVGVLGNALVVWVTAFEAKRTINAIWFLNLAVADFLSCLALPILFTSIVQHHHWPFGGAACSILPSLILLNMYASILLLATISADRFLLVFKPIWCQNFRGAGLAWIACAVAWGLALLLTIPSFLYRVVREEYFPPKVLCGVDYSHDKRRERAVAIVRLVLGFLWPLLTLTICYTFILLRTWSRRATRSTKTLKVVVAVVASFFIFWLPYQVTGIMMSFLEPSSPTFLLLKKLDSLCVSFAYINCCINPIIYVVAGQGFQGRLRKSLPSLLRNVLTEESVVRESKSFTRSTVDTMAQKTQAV
The test is described as follows: In vitro assay: antagonism of C5a-induced beta-arrestin recruitment (PathHunter) in CHO-K1 C5AR1 beta-arrestin cell line. It counts as cell-based. The conditions noted are these: antagonistic activity, 1-10 nM C5a agonist, geometric mean where several measurements, read-out: C5aR IC50. The gist of the method:
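Antagonist or DMSO added first, then C5a (1-10 nM, added at 6-fold end concentration), 1.5 h at 37 °C. PathHunter detection reagent was added for 45 min at RT before plate reading. IC50s come from antagonist serial dilutions in nmol/l and are geometric means of several measurements.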
(In general: Arrestin recruitment assays detect the binding of arrestin to an activated receptor.)
As to `Cc1cccc(F)c1N1CCC(N2C(=O)N(Cc3ccccc3C(F)(F)F)c3nn(C4CC4)cc3C2C)CC1` (single isomer, unassigned) [Example 309], the IC50 – broadly, the concentration that gives 50% inhibition – is 11 nM. For `Cc1cccc(F)c1N1CCC(N2Cc3cn(CCN4CCN(C)CC4)nc3N(Cc3ccccc3C(F)(F)F)C2=O)CC1` [Example 65] the value was 120 nM. The value for `C#CC(C)(C)n1cc2c(n1)N(Cc1ccccc1C(F)(F)F)C(=O)N(C1CCN(c3c(C)cccc3F)CC1)C2` [Example 160] was 147 nM. As for `Cn1cc2c(n1)N(Cc1ccccc1C1CC1)C(=O)N(C1CCN(c3c(F)cccc3F)CC1)C2` [Example 285], the IC50 was determined as 9 nM. Regarding `COC[C@H](O)Cn1cc2c(n1)N(Cc1ccccc1C(F)(F)F)C(=O)N(C1CCN(c3c(C)cccc3F)CC1)C2` [Example 41], the IC50 worked out at 17 nM. The value for `CC1c2cn(C)nc2N(Cc2ccccc2C(F)(F)F)C(=O)N1C1CCN(c2c(F)cccc2C2CC2)CC1` (single isomer, unassigned) [Example 334] was 210 nM. For `Cc1cccc(F)c1N1CCC(N2C(=O)N(Cc3ccccc3C3CC3)c3cn(C4CC4)nc3C2C)CC1` (single isomer, unassigned) [Example 279] the value was 28 nM. The value for `Cc1cccc(F)c1N1CCC(N2Cc3cn(C(C)(C)C(N)=O)nc3N(Cc3ccccc3C(F)(F)F)C2=O)CC1` [Example 84] was 74 nM; that for `Cc1cccc(F)c1N1CCC(N2Cc3cn(C)nc3N(Cc3ccccc3OC(F)(F)F)C2=O)CC1` [Example 232] was 16 nM; that for `CC1c2cn(C3CC3)nc2N(Cc2ccccc2C2CC2)C(=O)N1C1CCN(c2c(F)cccc2Cl)CC1` (single isomer, unassigned) [Example 338] was 110 nM. In the case of `Cc1cccc(F)c1N1CCC(N2Cc3cn(C(C)(C)CN)nc3N(Cc3ccccc3C(F)(F)F)C2=O)CC1` [Example 88], the IC50 is 156 nM. Consider `Cn1cc2c(n1)N(Cc1ccccc1C(F)(F)F)C(=O)N(C1CCN(c3c(F)cccc3C(F)F)CC1)C2` [Example 300], for which the IC50 worked out at 29 nM. For `Cc1cccc(F)c1N1CCC(N2C(=O)N(Cc3ccccc3C3CC3)c3nn(C4CC4)cc3C2C)CC1` (single isomer, unassigned) [Example 339] the value was 12 nM. The value for `Cc1cccc(F)c1N1CCC(N2Cc3cn(C(=O)N(C)CC(C)C)nc3N(Cc3ccccc3C(F)(F)F)C2=O)CC1` [Example 150] was 767 nM. With `Cn1cc2c(n1)CN(C1CCN(c3c(F)cccc3C(F)F)CC1)C(=O)N2Cc1ccccc1C(F)(F)F` [Example 301], the IC50 is 69 nM. For `COc1nccc(C)c1N1CCC(N2Cc3cn(C)nc3N(C(C)c3ccccc3C(F)(F)F)C2=O)CC1` (single isomer, unassigned) [Example 286] the value was 33 nM; for `Cc1cccc(F)c1N1CCC(N2Cc3cn(C4CN(C(=O)OC(C)(C)C)C4)nc3N(Cc3ccccc3C(F)(F)F)C2=O)CC1` [Example 91], 26 nM. For `COc1nccc(C(F)F)c1N1CCC(N2C(=O)N(Cc3ccccc3C(F)(F)F)c3nn(C)cc3C2C)CC1` (single isomer, unassigned) [Example 346] the value was 7 nM; for `COc1nccc(C(F)F)c1N1CCC(N2C(=O)N(Cc3ccccc3C(F)(F)F)c3nn(C)cc3C2C)CC1` (single isomer, unassigned) [Example 347], 201 nM. For `Cc1cccc(F)c1N1CCC(N2C(=O)N(Cc3ccccc3C(F)(F)F)c3nn(C4CC4)cc3C2C)CC1` (single isomer, unassigned) [Example 310] the value was 30 nM; for `CC(c1ccccc1C(F)(F)F)N1C(=O)N(C2CCN(c3c(F)cccc3F)CC2)Cc2cn(C)nc21` (single isomer, unassigned) [Example 291], 116 nM; for `COC1CN(CCn2cc3c(n2)N(Cc2ccccc2C(F)(F)F)C(=O)N(C2CCN(c4c(C)cccc4F)CC2)C3)C1` [Example 34], 22 nM. On to `Cc1nccc(F)c1N1CCC(N2Cc3cn(C)nc3N(Cc3ccccc3C(F)(F)F)C2=O)CC1` [Example 86], for which the IC50 turned out to be 230 nM. Take `COCn1cc2c(n1)N(Cc1ccccc1C(F)(F)F)C(=O)N(C1CCN(c3c(C)ccnc3OC)CC1)C2` [Example 227]: the IC50 was 10 nM.

Consider `CCc1cccc(F)c1N1CCC(N2Cc3cn(C)nc3N(Cc3ccccc3C(F)(F)F)C2=O)CC1` [Example 299], for which the IC50 was 402 nM.

For `Cc1cccc(F)c1N1CCC(N2Cc3cn(C4CC4)nc3N(Cc3c(Br)cccc3C(F)(F)F)C2=O)CC1` [Example 213], the IC50 was found to be 53 nM. The value for `Cc1cccc(F)c1N1CCC(N2Cc3c(cnn3COCC[Si](C)(C)C)N(Cc3ncccc3C(F)(F)F)C2=O)CC1` [Example 230] was 37 nM; that for `Cc1cccc(F)c1N1CCC(N2Cc3nn(C(C)C)cc3N(Cc3ccccc3C(F)(F)F)C2=O)CC1` [Example 191] was 4 nM. The value for `Cc1cccc(F)c1N1CCC(N2Cc3cn(C)nc3N(Cc3cncnc3C(C)C)C2=O)CC1` [Example 249] was 69 nM. For `COc1nccc(C)c1N1CCC(N2C(=O)N(Cc3ccccc3C3CC3)c3cn(C4CCCCO4)nc3C2C)CC1` (stereo not drawn) [Example 269], the IC50 was 193 nM. The value for `CC(=O)N1CC(n2cc3c(n2)N(Cc2ccccc2C(F)(F)F)C(=O)N(C2CCN(c4c(C)cccc4F)CC2)C3)C1` [Example 116] was 844 nM; that for `Cc1cccc(F)c1N1CCC(N2Cc3cn(CC4CC4(F)F)nc3N(Cc3ccccc3C(F)(F)F)C2=O)CC1` (single isomer, unassigned) [Example 190] was 11 nM; that for `COc1cccnc1N1CCC(N2Cc3cn(C)nc3N(Cc3ccccc3C(F)(F)F)C2=O)CC1` [Example 70] was 512 nM. Regarding `Cc1cccc(F)c1N1CCC(N2Cc3cn(C(=O)N(C)C)nc3N(Cc3ccccc3C(F)(F)F)C2=O)CC1` [Example 149], the IC50 was determined as 70 nM. For `COc1nccc(C)c1N1CCC(N2C(=O)N(Cc3ccccc3C(F)(F)F)c3nn(C)cc3C2C)CC1` (single isomer, unassigned) [Example 332] the value was 184 nM. The value for `COc1nccc(C(F)F)c1N1CCC(N2C(=O)N(Cc3ccccc3C(F)(F)F)c3n[nH]cc3C2C)CC1` (single isomer, unassigned) [Example 352] was 11 nM. For `Cc1nn(C)c(N2CCC(N3Cc4cn(C)nc4N(Cc4ccccc4C(F)(F)F)C3=O)CC2)c1Cl` [Example 238] the value was 166 nM; for `CC1c2cn(C3CCCCO3)nc2N(Cc2ccccc2C(F)(F)F)C(=O)N1C1CCN(c2c(F)cccc2Cl)CC1` (stereo not drawn) [Example 342], 24 nM.

In the case of `COc1nccc(C(F)F)c1N1CCC(N2C(=O)N(Cc3ccccc3C(F)(F)F)c3nn(C4CC4)cc3C2C)CC1` (single isomer, unassigned) [Example 358], the IC50 was determined as 12 nM. For `CC1c2cn(C)nc2N(Cc2ccccc2C2CC2)C(=O)N1C1CCN(c2c(F)cccc2Br)CC1` (single isomer, unassigned) [Example 385] the value was 491 nM; for `Cn1cc2c(n1)CN(C1CCN(c3c(F)cccc3C3CC3)CC1)C(=O)N2Cc1ccccc1C(F)(F)F` [Example 304], 35 nM; for `Cc1cccc(F)c1N1CCC(N2Cc3cn(C4CN(c5nnc(C(F)(F)F)o5)C4)nc3N(Cc3ccccc3C(F)(F)F)C2=O)CC1` [Example 144], 14 nM. As for `Cc1cccc(F)c1N1CCC(N2Cc3cn(CC(C)(F)F)nc3N(Cc3c(Br)cccc3C(F)(F)F)C2=O)CC1` [Example 214], the IC50 came to 87 nM.

As for `COc1nccc(C)c1N1CCC(N2C(=O)N(Cc3ccccc3C3CC3)c3cn(C4CC4)nc3C2C)CC1` (single isomer, unassigned) [Example 292], the IC50 came to 515 nM. For `Cc1cccc(F)c1N1CCC(N2Cc3cn(C(C)C(N)=O)nc3N(Cc3ccccc3C(F)(F)F)C2=O)CC1` (stereo not drawn) [Example 75] the value was 171 nM; for `Cc1cccc(F)c1N1CCC(N2C(=O)N(Cc3ccccc3C(F)(F)F)c3nn(C)cc3C2C)CC1` (single isomer, unassigned) [Example 220], 8 nM; for `Cc1cccc(F)c1N1CCC(N2Cc3cn(CCNC4CC4)nc3N(Cc3ccccc3C(F)(F)F)C2=O)CC1` [Example 71], 24 nM. For `Cc1cccc(F)c1N1CCC(N2Cc3cn(C(C)(C)C)nc3N(Cc3ccccc3C(F)(F)F)C2=O)CC1` [Example 173], the IC50 amounted to 15 nM. For `Cc1cccc(F)c1N1CCC(N2Cc3cn(C4CNC4=O)nc3N(Cc3ccccc3C(F)(F)F)C2=O)CC1` (stereo not drawn) [Example 157] the value was 17 nM; for `Cc1cccc(F)c1N1CCC(N2C(=O)N(Cc3ccccc3C3CC3)c3nn(C)cc3C2C)CC1` (single isomer, unassigned) [Example 318], 131 nM.

Consider `Cn1cc2c(n1)N(Cc1ccccc1C(F)(F)F)C(=O)N(C1CCN(c3ncccc3F)CC1)C2` [Example 68], for which the IC50 was 318 nM.

Consider `Cc1cccc(F)c1N1CCC(N2Cc3cn(CC(C)F)nc3N(Cc3ccccc3C(F)(F)F)C2=O)CC1` (single isomer, unassigned) [Example 186], for which the IC50 was 8 nM. For `Cc1cccc(F)c1N1CCC(C)(N2Cc3cn(C)nc3N(Cc3ccccc3C(F)(F)F)C2=O)CC1` [Example 217], the half-maximal inhibitory concentration (IC50) was 11 nM.

As for `CC1c2cn(C)nc2N(Cc2ccccc2C(F)(F)F)C(=O)N1C1CCN(c2c(F)cccc2Cl)CC1` (single isomer, unassigned) [Example 320], the IC50 amounted to 325 nM.
